Patent US9526720B2, “Modulators of hepatic lipoprotein metabolism” (The Broad Institute, Inc., priority 2012, dated 2016)
pEC50: −log10 of the molar value. Entries after “also recorded” stand apart in the source; their conditions may differ.

How the values were obtained:
ApoB = test: ELISA of secreted ApoB in HepG2 cells; assay type: cell-based, human; conditions: for secretion of apoB into the media / ApoB levels (in words): HepG2; for ELISA ApoB: HepG2 cells
Procedure: (§1) Additional secondary assays were performed in HepG2 cells to further characterize the cellular response to treatment with select confirmed TRIB1 inducer hits. The results of the ELISA, CTG, and qPCR secondary assays are summarized in Table B. For all secondary assays, the experiments were performed using powders of freshly purified compounds.
(§2) To further characterize the relationship of TRIB1 induction and PCSK9 reduction, ELISAs were performed to measure the levels of secreted ApoB, PCSK9, and LDLR. […] As predicted treatment with TRIB1 inducer hits caused a decrease in ApoB levels detected by ELISA. In parallel effort, 3200 BIOA and NATP compounds were screened for PCSK9 expression inhibitors. Hits were defined as inducing greater than 3-fold downregulation of PCSK9, and 3.8% of the screened compounds were confirmed as hits. […] In further experiments, a strong correlation was confirmed between TRIB1 induction and PCSK9 repression in DOS Collection hits. ELISA analysis confirmed that treatment with TRIB1 inducers reduced the PCSK9 protein levels. LDLR protein levels were also analyzed by ELISA to determine whether compounds that modulate both TRIB1 and PCSK9 had any effect on LDLR protein levels.

SREBF1 = test: qPCR SREBF1 transcript level in HepG2 cells; assay type: cell-based, human; parameters: key: A: Increase <2-fold; B: Increase >2-fold; X: Decrease <2-fold; Y: Decrease >2-fold; No significant change
Procedure: (§3) In the primary screen, HepG2 cells were plated in 384-well plates at 2000 cells per well and incubated for 20 hours with each compound in duplicate at 10 microM concentration. Then RNA was isolated, reverse-transcribed to cDNA, and stored at −80° C. Expression levels of TRIB1 and other target genes, such as SORT1 and PCSK9, were determined by quantitative PCR. Relative gene expression level was normalized to expression of the housekeeping gene, GAPDH. A “hit” was defined as those compounds that caused a greater than 2-fold increase in relative target gene expression when normalized to GAPDH expression, compared to DMSO-treated control. Using these criteria, 130 hits were identified for TRIB1 (0.8% hit rate).
(§4) Further analysis of the expression levels of various proteins in the cholesterol and triglyceride biosynthetic pathways in response to TRIB1 inducer treatment was performed. In particular, transcript levels of additional lipoprotein metabolism pathway proteins SCAP, SREBF1, SREBF2, HMGCR, HMGCS, SCD1, FASN and MTTP were assessed by qPCR, along with TRIB1, LDLR, and PCSK9. The gene expression profile for the same subset of genes was also assessed after treatment with the statin atorvastatin (Lipitor), commonly used in therapy for hypercholesterolemia and other cardiovascular diseases.

APOC3 = test: Transcriptional profiling of APOC3 gene in HepG2 cells; assay type: cell-based, human; conditions: 10 μM, 24 hours
Text: Expression of APOC3 is associated with increased levels of triglycerides in plasma and carriers of APOC3 gene null mutation have low levels of triglycerides and are protected from cardiovascular disease (Pollin et al., Science, 322:1702, 2008).

LDLR [1] = test: qPCR LDLR expression in HepG2 cells; assay type: cell-based, human; conditions: for induction of LDLR expression in combination with simvastatin (in words): overnight simvastatin, then compound
TRIB1 [2] = test: qPCR TRIB1 expression in HepG2 cells; assay type: cell-based, human; conditions: for TRIB1 expression (in words) / potency relative to berberine: HepG2; for TRIB1 expression (in words): qPCR; for fold induction at 10 µM: Homo sapiens, 20 h, HepG2 cells; for potency relative to berberine: TRIB1, LDLR, PCSK9 and MTTP gene expression changes
Procedure: as §3, §4
(§5) The kinetics of the modulation of TRIB1, LDLR, PCSK9 and MTTP gene expression after treatment by select TRIB1 inducer compounds was monitored by qPCR analysis (FIG. 4). RNA was extracted from cells at various timepoints over 28 hours of treatment (0, 2, 4, 6, 8, 24, 28 hours). Specifically, compounds 12a and 14a induced transcriptional responses over time similar to those produced by berberine, a plant alkaloid used in Chinese medicine. […] Both compound 12a and compound 14a induce TRIB1 and LDLR and repress PCSK9 and MTTP expression with similar kinetics and similar fold change as berberine Importantly, both compounds induce these gene expression changes at much lower concentrations than berberine. […] This increased potency indicates the potential therapeutic efficacy of such compounds for treatment of cardiovascular diseases, particularly hypercholesterolemia and related conditions.

SREBF2 = test: qPCR SREBF2 transcript level in HepG2 cells; assay type: cell-based, human; parameters: key: A: Increase <2-fold; B: Increase >2-fold; X: Decrease <2-fold; Y: Decrease >2-fold; No significant change
Procedure: as §3, §4

SCAP = test: qPCR SCAP transcript level in HepG2 cells; assay type: cell-based, human; parameters: key: A: Increase <2-fold; B: Increase >2-fold; X: Decrease <2-fold; Y: Decrease >2-fold; No significant change
Procedure: as §3, §4

LDLR [3] = test: qPCR LDLR expression in HepG2 cells; assay type: cell-based, human; conditions: for LDLR expression (in words): HepG2, qPCR; for qPCR LDLR: HepG2 cells
Procedure: as §3, §4, §5

PCSK9 [4] = test: ELISA of secreted PCSK9 protein in HepG2 cells; assay type: cell-based, human; conditions: for ELISA PCSK9: HepG2 cells; for inhibition of secretion of PCSK9 protein into the media: at the maximal dose tested, HepG2
Procedure: as §1, §2

HepG2 cells [5] = test: Cell Titer Glo (CTG) cell viability assay; assay type: cell-based, human; parameters: key: A: Increase <2-fold; B: Increase >2-fold; X: Decrease <2-fold; Y: Decrease >2-fold; No significant change; conditions: cell viability (ATP)
Procedure: Cell viability was determined using a Cell Titer Glo (CTG) assay ([…]) after treatment with TRIB1 inducer compounds. In this assay, the number of viable cells in culture is based on quantitation of ATP, which indicates metabolically active cells. Addition of the reagent results in cell lysis and generation of a luminescent signal proportional to the amount of ATP present, which is directly proportional to the number of viable, metabolically active cells present in culture. Most TRIB1 inducer compounds had no significant effect on cell viability.

SCD1 = test: qPCR SCD1 transcript level in HepG2 cells; assay type: cell-based; conditions: Homo sapiens, 20 h
Procedure: as §3, §4

HepG2 cells [6] = test: BODIPY-FL LDL uptake in HepG2 cells (high content microscopy); assay type: cell-based, human; conditions: treated 20 hours; BODIPY-FL LDL uptake monitored 5 hours
Procedure: TRIB1 inducers increase the rate of LDL uptake. HepG2 cells grown under standard culture conditions (10% FBS) were treated for 20 hours with compounds 2a, 14a and 12a at indicated concentrations and the uptake of BODIPY-FL conjugated LDL particles was monitored for 5 hours using high content microscopy. To control for regulation of LDL uptake by cholesterol, cells were grown in media depleted for (0.5% LPDS—lipoprotein deficient serum) or supplemented with cholesterol (0.5% LPDS plus cholesterol ([…] cholesterol and […] 25-OH cholesterol)).

PCSK9 [7] = test: qPCR PCSK9 expression in HepG2 cells; assay type: cell-based, human; conditions: for PCSK9 expression (in words) / inhibition of expression of PCSK9 mRNA: HepG2; for PCSK9 expression (in words): qPCR; for fold induction at 10 µM: Homo sapiens, 20 h, HepG2 cells; for inhibition of expression of PCSK9 mRNA: at the maximal dose tested
Procedure: as §3, §4, §5

HMGCR = test: qPCR HMGCR transcript level in HepG2 cells; assay type: cell-based, human
Procedure: as §3, §4

FASN = test: qPCR FASN transcript level in HepG2 cells; assay type: cell-based; conditions: Homo sapiens, 20 h
Procedure: as §3, §4

LDLR [8] = test: ELISA of LDLR protein in HepG2 cells; assay type: cell-based, human; conditions: for increase of the LDL receptor protein in the cell: HepG2; for ELISA LDLR: HepG2 cells
Procedure: as §1, §2

MTTP = test: qPCR MTTP expression in HepG2 cells; assay type: cell-based, human; conditions: 28 hour time course
Procedure: as §4
The kinetics of the modulation of TRIB1, LDLR, PCSK9 and MTTP gene expression after treatment by select TRIB1 inducer compounds was monitored by qPCR analysis (FIG. 4). RNA was extracted from cells at various timepoints over 28 hours of treatment (0, 2, 4, 6, 8, 24, 28 hours). Specifically, compounds 12a and 14a induced transcriptional responses over time similar to those produced by berberine, a plant alkaloid used in Chinese medicine. […] Both compound 12a and compound 14a induce TRIB1 and LDLR and repress PCSK9 and MTTP expression with similar kinetics and similar fold change as berberine Importantly, both compounds induce these gene expression changes at much lower concentrations than berberine. […]

HMGCS = test: qPCR HMGCS transcript level in HepG2 cells; assay type: cell-based; conditions: Homo sapiens, 20 h
Procedure: as §3, §4

TRIB1 [9] = test: qPCR TRIB1 expression in HepG2 cells; assay type: cell-based; conditions: Homo sapiens, HepG2; induction of TRIB1 and LDLR transcript levels; read-out: half maximal effective concentration (EC50)

SMILES | secretion of apoB into the media / ApoB levels (in words) (ApoB) | ELISA ApoB (ApoB) | qPCR SREBF1 (SREBF1) | expression of APOC3 gene (in words) (APOC3) | induction of LDLR expression in combination with simvastatin (in words) (LDLR [1]) | TRIB1 expression (in words) (TRIB1 [2]) | fold induction at 10 µM (TRIB1 [2]) | potency relative to berberine (TRIB1 [2]) | qPCR SREBF2 (SREBF2) | qPCR SCAP (SCAP) | LDLR expression (in words) (LDLR [3]) | qPCR LDLR (LDLR [3]) | ELISA PCSK9 (PCSK9 [4]) | inhibition of secretion of PCSK9 protein into the media (PCSK9 [4]) | CTG (HepG2 cells [5]) | fold induction at 10 µM (SCD1) | rate of LDL uptake (in words) (HepG2 cells [6]) | PCSK9 expression (in words) (PCSK9 [7]) | fold induction at 10 µM (PCSK9 [7]) | expression of PCSK9 stimulated by pretreatment with atorvastatin (in words) (PCSK9 [7]) | further results
CN(C)c1ccc2c(c1)[C@@H]1C[C@@H](CC(=O)NCc3ccc(Oc4ccccc4)cc3)O[C@@H](CO)[C@@H]1O2 [Compound 12a] | inhibited secretion of apoB | Y (Decrease >2-fold) | Y (Decrease >2-fold) | down regulates | additive effect | induce; also recorded: robustly induced | < 2 | 5 fold | Y (Decrease >2-fold) | X (Decrease <2-fold) | induction of LDLR expression; also recorded: induce; also recorded: robustly induced | A (Increase <2-fold) | Y (Decrease >2-fold) | 70% | N | > 2 | robust increase | repress; also recorded: strongly reduced | > 2 | potently reduced | inhibition of expression of PCSK9 mRNA (PCSK9 [7]): 70%; qPCR HMGCR (HMGCR): Y (Decrease >2-fold); fold induction at 10 µM (FASN): > 2; increase of the LDL receptor protein in the cell (LDLR [8]): 3 fold; ELISA LDLR (LDLR [8]): B (Increase >2-fold); MTTP expression (in words) (MTTP): repress; fold induction at 10 µM (HMGCS): > 2
CN1C(=O)c2cc(NC(=O)c3ccc(C(F)(F)F)cc3)ccc2OC[C@@H]2O[C@H](CC(=O)NC3Cc4ccccc4C3)CC[C@@H]21 [Compound 14a] | – | – | – | – | additive effect | induce; also recorded: robustly induced | – | 10 fold | – | – | induce; also recorded: robustly induced | – | – | – | – | – | robust increase | repress; also recorded: strongly reduced | – | potently reduced | EC50 (ApoB; Homo sapiens, HepG2, 24 h, read-out: ELISA 24 Hr (EC50 uM) ApoB decrease): 1.1 to 2 µM; LDLR signal over the non-depleted control (LDLR [1]; 2.5 μM, 0.5% LPDS, 24 h): 9 fold; EC50 (LDLR [3]; Homo sapiens, HepG2, 6 h, read-out: qPCR 6Hr (EC50 uM) LDLR up-regulation): 0.51 to 1 µM; EC50 (PCSK9 [4]; Homo sapiens, HepG2, 24 h, read-out: ELISA 24 Hr (EC50 uM) PCSK9 decrease): 0.51 to 1 µM; pEC50 (TRIB1 [9]): > 6.00; decrease of PCSK9 mRNA below the level induced by cholesterol starvation (PCSK9 [7]; 2.5 μM, 0.5% LPDS, 24 h): 3.8 fold; MTTP expression (in words) (MTTP): repress
CN1C(=O)c2cc(NC(=O)c3ccc(C(F)(F)F)cc3)ccc2OC[C@@H]2O[C@@H](CC(=O)NC3Cc4ccccc4C3)CC[C@@H]21 [Compound 2a] | inhibited secretion of apoB | Y (Decrease >2-fold) | N | down regulates | additive effect | robustly induced | > 2 | – | N | N | induction of LDLR expression; also recorded: robustly induced | B (Increase >2-fold) | Y (Decrease >2-fold) | 70% | N | > 2 | robust increase | strongly reduced | > 2 | potently reduced | inhibition of expression of PCSK9 mRNA (PCSK9 [7]): 70%; qPCR HMGCR (HMGCR): Y (Decrease >2-fold); fold induction at 10 µM (FASN): > 2; increase of the LDL receptor protein in the cell (LDLR [8]): 3 fold; ELISA LDLR (LDLR [8]): B (Increase >2-fold); fold induction at 10 µM (HMGCS): > 2
